According to PubChem BioAssay (NCI):
“And” between values parts separate entries of the source, which are not always exact repeats. Equal values may be shown once.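 Method: 48-hour compound exposure of cells in 96-well plates, five concentrations, linear interpolation of endpoints. GI50 is the concentration that inhibits growth by half. TGI is the concentration that stops growth completely.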

Legend:
Test in all cases: NCI-60 cell line screen, 48 h
OVCAR-8 ovarian = test system: OVCAR-8 ovarian
HOP-62 NSCLC = test system: HOP-62 NSCLC
SK-MEL-5 melanoma = test system: SK-MEL-5 melanoma
PC-3 prostate = test system: PC-3 prostate
SN12C renal = test system: SN12C renal
HCT-15 colon = test system: HCT-15 colon
HOP-92 NSCLC = test system: HOP-92 NSCLC
SW-620 colon = test system: SW-620 colon
TK-10 renal = test system: TK-10 renal
HCT-116 colon = test system: HCT-116 colon

Row | Structure (SMILES) | TGI (OVCAR-8 ovarian) | TGI (HOP-62 NSCLC) | TGI (SK-MEL-5 melanoma) | TGI (PC-3 prostate) | TGI (SN12C renal) | TGI (HCT-15 colon) | TGI (HOP-92 NSCLC) | TGI (SW-620 colon) | TGI (TK-10 renal) | TGI (HCT-116 colon) | GI50 (OVCAR-8 ovarian) [µM] | GI50 (HOP-62 NSCLC) [µM] | GI50 (SK-MEL-5 melanoma) [µM] | GI50 (SN12C renal) [µM] | GI50 (HCT-15 colon) [µM] | GI50 (HOP-92 NSCLC) [µM] | GI50 (SW-620 colon) [µM] | GI50 (TK-10 renal) [µM] | GI50 (HCT-116 colon) [µM]
1 | CN(C)c1n2c3ccc([N+](=O)[O-])cc3n3c(N(C)C)[n+]4ccccc4c3c2c2cccc[n+]12 | > 100 µM | > 100 µM | > 100 µM | > 100 µM | > 100 µM | > 100 µM | > 100 µM | > 100 µM | > 100 µM | > 100 µM |  |  |  |  |  |  |  |  | 
2 | CC1(C)CC(=O)c2c(-c3ccc(Cl)cc3)c(C#N)c(=S)n(C3OC(CO)C(O)C(O)C3O)c2C1 (centres undefined) | > 100 µM | > 100 µM | 34.8 µM | 52.1 µM | > 100 µM | > 100 µM | 96.7 µM | > 100 µM | > 100 µM | > 100 µM |  |  |  |  |  |  |  |  | 
3 | CCOC(=O)c1ccc(N=C2Sc3nc4ccccc4n3C2=Nc2ccc(C(=O)OCC)cc2)cc1 | 89.7 µM | 46.5 µM | 63.2 µM | > 100 µM | > 100 µM | > 100 µM | 35.9 µM | > 100 µM | 32.6 µM | 19.2 µM |  |  |  |  |  |  |  |  | 
4 | OC1C2CCCCN2C[C@@H](O)[C@H]1O (some centres undefined) | > 100 µM | > 100 µM | > 100 µM | > 100 µM | > 100 µM | > 100 µM | > 100 µM | > 100 µM | > 100 µM | > 100 µM |  |  |  |  |  |  |  |  | 
5 | COc1ccc2nc3ccc(OC)cc3c(S(=O)Cc3ccccc3)c2c1 (centres undefined) | 12.7 µM | 33.4 µM | 30.5 µM | 27.2 µM | 21.3 µM | > 48.9 µM | > 37.3 µM | > 32.1 µM | 19.4 µM | 6.3 µM |  |  |  |  |  |  |  |  | 
6 | Cc1cc(NS(=O)(=O)c2ccc(NO)cc2)no1 | > 100 µM | > 100 µM | > 100 µM | > 100 µM | 43 µM | > 100 µM | > 100 µM | 82.9 µM | > 100 µM | > 100 µM |  |  |  |  |  |  |  |  | 
7 | COc1cccc(CCn2c(N)c(-c3cc(Cl)cc(Cl)c3)c3ccc([N+](=O)[O-])cc3c2=O)c1 | > 100 µM | > 100 µM | 9.07 µM | > 61.9 µM | > 86.7 µM | > 44.5 µM | 7.93 µM | > 100 µM | > 100 µM | 12.7 µM |  |  |  |  |  |  |  |  | 
8 | COC1(OC)CCN(Cc2ccccc2)C1=O | 17.9 µM | 38.6 µM | 29.2 µM | 27.8 µM | 22.1 µM | 38.6 µM | 23.4 µM | 7.28 µM | 29.7 µM | 13.9 µM |  |  |  |  |  |  |  |  | 
9 | COC(=O)CN1Cc2cc(C)cc(c2O)CN(CC(=O)OC)Cc2cc(C)cc(c2O)CN(CC(=O)OC)Cc2cc(C)cc(c2O)CN(CC(=O)OC)Cc2cc(C)cc(c2O)C1 | 50 µM and > 100 µM | 47.8 µM and > 100 µM | 50 µM and > 100 µM | 50 µM and > 100 µM | 50 µM and > 100 µM | 50 µM and > 100 µM | > 50 µM and 97.5 µM | 50 µM and > 100 µM | 50 µM and > 100 µM | 50 µM and > 100 µM | 18.7 | 23.3 | 37.7 | 51.6 | 25 | 21.5 | 18 | > 100 | 27.7
10 | COc1cc(-c2nc(N)c(C#N)c3c2CCS(=O)(=O)c2ccc(C)cc2-3)cc(OC)c1OC | 26.9 µM | > 100 µM | > 100 µM | > 100 µM | > 100 µM | > 100 µM | 54.8 µM | > 100 µM | 70 µM | > 100 µM |  |  |  |  |  |  |  |  | 
11 | NC(=O)C1=C(O)[C@@]2(O)C(=O)C3=C(O)c4c(O)cccc4CC3C[C@H]2CC1=O (some centres undefined) | 17.3 µM | 14.1 µM | 3.67 µM | 9.71 µM | 14.5 µM | 6.21 µM | 6.05 µM | 33.6 µM | 43.7 µM | 12 µM |  |  |  |  |  |  |  |  | 
12 | N#Cc1c(C#N)c(SSc2c(C#N)c(C#N)c(N)n2-c2cccc3ccccc23)n(-c2cccc3ccccc23)c1N | > 25.3 µM | 49.9 µM | 41.8 µM | 35.5 µM | 34.8 µM | 4.01 µM | 13.6 µM | > 100 µM | 40.9 µM | 14.1 µM |  |  |  |  |  |  |  |  | 
13 | CC1(C)N=C(C(N)=O)c2ncn(Cc3ccccc3)c2N1 | > 100 µM | > 100 µM | > 100 µM | > 100 µM | > 100 µM | > 100 µM | > 100 µM | > 100 µM | > 100 µM | > 100 µM |  |  |  |  |  |  |  |  | 
14 | Cc1ccc(NC(=O)c2cccc(OP(=O)(Nc3ccc(C)cc3)Nc3ccc(C)cc3)c2)cc1 | > 100 µM | > 100 µM | > 100 µM | > 100 µM | > 100 µM | > 100 µM | 8.93 µM | > 100 µM | 83.4 µM | 80.8 µM |  |  |  |  |  |  |  |  | 
15 | O=C1c2ccccc2C(=O)c2c1oc1cc(O)c(Cl)cc21 | 23.4 µM | 21.7 µM | 1.58 µM | 29.6 µM | 22.5 µM | 17.8 µM | 25.9 µM | 24.9 µM | 38.5 µM | 15.1 µM |  |  |  |  |  |  |  |  | 
16 | CC1=CC2(C)C=C[C@@H]1C(=O)[C@@]1(C)CC[C@@](O)(C(C)C)[C@H]1CC2 | 32.6 µM | 35.2 µM | 34 µM | 51.9 µM | 39.4 µM | 55.8 µM | 28.2 µM | 37.7 µM | > 100 µM | 32.2 µM |  |  |  |  |  |  |  |  | 
